Reference: patent US6891054B2, “Functional acylglycerides” (Natural AS, priority 2001, dated 2005)

Key:
[1] = Peroxide value (PV), spectrophotometric ferric thiocyanate method, after storage in open glass; type: physicochemical
Text: The present invention also contemplates stabilization of the CLA acylglycerides by preventing oxidation of the compounds. The present invention is not limited to any one mechanism. Indeed, an understanding of the mechanism of the invention is not necessary to produce the composition or perform the methods of the present invention. […] After storage in open glass, the PV of CLA was 32; in comparison, the value for linoleic acid was 370.

[2] = tested on: rat mammary tumorigenesis; conditions: administration of CLA; cited from earlier work
[3] = tested on: human melanoma, colorectal and breast cancer cells; conditions: in vitro; cited from earlier work
[4] = tested on: CD-4 and CD-8 lymphocyte subpopulations; conditions: oral or parenteral, free acid or salt form; cited from earlier work
[5] = diet containing 0.5 percent CLA, cited from earlier work
[6] = CLA incorporated into animal feed; cited from earlier work

| peroxide value (PV) [1] | Molecule | effect on rat mammary tumorigenesis [2] | cytotoxicity [3] | CD-4 and CD-8 lymphocyte subpopulations [4] | body weight [5] | fat content ([5]; pigs, mice, humans) | protein mass ([5]; pigs, mice, humans) | efficiency of feed conversion [6] |
| --- | --- | --- | --- | --- | --- | --- | --- | --- |
| 370 | CCCCC/C=C\C/C=C\CCCCCCCC(=O)O [linoleic acid, reference compound] |  |  |  |  |  |  |  |
| 32 | conjugated linoleic acid [CLA] | inhibits rat mammary tumorigenesis | strong cytotoxic agent | elevation | no increase | significant drop | concomitant increase | increased the efficiency of feed conversion |
